Experiment [1] has as its target Lysophosphatidic acid receptor 1 (Rattus norvegicus, UniProt P61794). The experiment in a line: Activity at LPA1 receptor in RH7777 rat hepatoma cell line.
The target in experiment [2] is Lysophosphatidic acid receptor 2 (Homo sapiens, UniProt Q9HBW0). The experiment in a line: Activity at LPA2 receptor in RH7777 rat hepatoma cell line. In kind it is cell-based.
Experiment [3] has as its target T1, Lysophosphatidic acid receptor 3 (Rattus norvegicus) (UniProt Q8K5E0).
T1 sequence (whole entry): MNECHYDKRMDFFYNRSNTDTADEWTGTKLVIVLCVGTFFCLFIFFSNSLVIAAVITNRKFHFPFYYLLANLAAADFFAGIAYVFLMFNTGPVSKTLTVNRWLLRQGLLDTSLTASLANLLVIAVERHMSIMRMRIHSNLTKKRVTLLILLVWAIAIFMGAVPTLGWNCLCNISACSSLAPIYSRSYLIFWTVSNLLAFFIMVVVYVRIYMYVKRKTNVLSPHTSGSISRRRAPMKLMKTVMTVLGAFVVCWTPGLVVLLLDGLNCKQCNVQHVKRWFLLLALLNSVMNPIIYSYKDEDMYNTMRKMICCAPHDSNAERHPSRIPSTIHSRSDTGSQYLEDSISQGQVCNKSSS
Briefly: (§1) Activity at LPA3 receptor in RH7777 rat hepatoma cell line. In kind it is cell-based.

For experiment [4], the target named is T2, Lysophosphatidic acid receptor 3 (Rattus norvegicus, UniProt Q8K5E0).
T2 sequence (Q8K5E0 whole entry): T1 sequence (whole entry)
Described as §1. Type of experiment: cell-based.

Experiment [5] has as its target T3, Peroxisome proliferator-activated receptor gamma (Homo sapiens) (UniProt P37231).
T3 sequence (whole entry): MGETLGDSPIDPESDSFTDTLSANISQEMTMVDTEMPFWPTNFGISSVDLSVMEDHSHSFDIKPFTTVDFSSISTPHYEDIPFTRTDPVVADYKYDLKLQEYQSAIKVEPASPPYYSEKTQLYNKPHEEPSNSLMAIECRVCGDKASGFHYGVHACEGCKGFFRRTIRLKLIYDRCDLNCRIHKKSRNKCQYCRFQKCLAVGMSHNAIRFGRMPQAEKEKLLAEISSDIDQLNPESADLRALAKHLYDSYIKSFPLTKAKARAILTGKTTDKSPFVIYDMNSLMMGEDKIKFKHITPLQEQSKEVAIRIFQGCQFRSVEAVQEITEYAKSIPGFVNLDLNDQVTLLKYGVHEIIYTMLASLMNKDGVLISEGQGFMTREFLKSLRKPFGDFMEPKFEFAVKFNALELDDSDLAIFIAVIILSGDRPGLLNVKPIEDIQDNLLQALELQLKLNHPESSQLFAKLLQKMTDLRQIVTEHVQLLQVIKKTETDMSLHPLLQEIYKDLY
The experiment in a line: PPARgamma activation in CV1 cells. Type of experiment: cell-based. The note with it: CV-1, filed as agonist.

The next experiment deals with Autotaxin (Homo sapiens, UniProt Q13822). Briefly: Inhibition of lysophospholipase D autotaxin. The note with it: for residual activity: values are per cent of control.

Each structure is given as a SMILES string.

The values below come from ChEMBL document CHEMBL1148595, “Identification of Darmstoff analogs as selective agonists and antagonists of lysophosphatidic acid receptors” (Bioorg Med Chem Lett, 2006).

Chain of Lysophosphatidic acid receptor 2 (Q9HBW0 whole entry): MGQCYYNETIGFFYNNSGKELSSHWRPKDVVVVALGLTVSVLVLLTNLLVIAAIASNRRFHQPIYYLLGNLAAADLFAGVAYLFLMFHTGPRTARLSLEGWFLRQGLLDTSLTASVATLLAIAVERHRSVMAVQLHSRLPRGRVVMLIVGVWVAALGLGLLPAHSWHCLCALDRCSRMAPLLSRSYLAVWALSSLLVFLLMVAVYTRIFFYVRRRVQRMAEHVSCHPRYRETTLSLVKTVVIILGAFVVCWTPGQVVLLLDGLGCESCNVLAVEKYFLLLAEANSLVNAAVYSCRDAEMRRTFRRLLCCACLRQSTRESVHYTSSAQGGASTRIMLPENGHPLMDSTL
Chain of Lysophosphatidic acid receptor 1 (P61794 whole entry): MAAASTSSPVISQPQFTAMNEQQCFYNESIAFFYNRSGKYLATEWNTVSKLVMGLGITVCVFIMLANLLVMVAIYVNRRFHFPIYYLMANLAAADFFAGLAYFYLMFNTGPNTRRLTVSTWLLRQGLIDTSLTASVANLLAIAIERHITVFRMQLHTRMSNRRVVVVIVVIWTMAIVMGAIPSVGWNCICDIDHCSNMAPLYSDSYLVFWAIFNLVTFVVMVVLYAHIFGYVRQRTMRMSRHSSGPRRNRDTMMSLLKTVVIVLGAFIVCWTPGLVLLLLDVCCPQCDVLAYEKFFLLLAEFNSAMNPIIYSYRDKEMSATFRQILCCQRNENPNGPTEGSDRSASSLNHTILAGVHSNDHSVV

With `C/C=C/C/C=C/C/C=C/CCCCCCCCC1OCC(COP(=O)(O)O)O1` (stereo unspecified), the EC50 in experiment [1] was 3600 nM; in experiment [2], 1710 nM; in experiment [4], 7590 nM. In addition, the maximal response (Emax) was 51% in experiment [2] and 29% in experiment [3]. The Activity result in experiment [5] is “Agonist”. The molecule further returned an IC50 on Autotaxin of 803 nM. Further, the residual activity at Autotaxin worked out at 54%.
Take `CCCCCCCCc1ccc(CCCCCCC2OCC(COP(=O)(O)O)O2)cc1` (stereo unspecified): in experiment [1], the IC50 is 4660 nM and affinity was put at a Ki of 1930 nM. For the same molecule, in experiment [4], the IC50 stood at 504 nM and the Ki is 171 nM. For the same molecule, in experiment [5], the Activity entry was “Agonist”. Further, at Autotaxin, the IC50 was 106 nM and the residual activity was determined as 10%.
For the molecule `CCCCCCC/C=C/CCCCCCCC[C@H]1OC[C@H](COP(O)(O)=S)O1`, the results for the EC50 in experiment [1], in experiment [2] and in experiment [4] were 1580 nM, 1300 nM and 127 nM, respectively. Moreover, the figures for the maximum response (Emax) in experiment [2] and in experiment [3] were 77% and 127%, respectively. Besides, the Activity entry in experiment [5] is “Agonist”. The midpoint of inhibition at Autotaxin, the IC50, lay at 252 nM. On Autotaxin, this molecule registered a residual activity of 74%.
In the case of `CCCCCCC/C=C/CCCCCCCC[C@H]1OC[C@H](COP(=O)(O)O)O1`, in experiment [2], the EC50 was 1170 nM and the Emax was found to be 39%. In experiment [5], the Activity result was “Agonist”. In addition, on Autotaxin, inhibition was half-maximal at 120 nM (IC50) and the residual activity was 30%.
As for `CCCCCCC/C=C/CCCCCCCC[C@H]1OC[C@@H](COP(=O)(O)O)O1`, in experiment [4], it took 209 nM to reach half-maximal inhibition (IC50) and the Ki is 77 nM. Moreover, the Activity entry in experiment [5] is “Agonist”. On Autotaxin, this molecule returned an IC50 of 178 nM and a residual activity of 25%.
Consider `CCCCCCC/C=C/CCCCCCCC[C@@H]1OC[C@H](COP(O)(O)=S)O1`, for which the concentration giving a half-maximal response (EC50) in experiment [1] is 1410 nM; in experiment [2], 1090 nM; in experiment [4], 194 nM. In addition, the Emax in experiment [2] came out at 85%; in experiment [3], 113%. In experiment [5], the Activity entry is “Agonist”. Also, at Autotaxin, the IC50 was found to be 344 nM. On Autotaxin, this molecule came in with a residual activity of 66%.
As for `CCCCCCC/C=C/CCCCCCCCC1OCC(COP(O)(O)=S)O1` (stereo unspecified), the EC50 in experiment [1] came out at 981 nM; in experiment [2], 1170 nM; in experiment [4], 639 nM. Moreover, the maximum response (Emax) was found to be 87% in experiment [2] and 73% in experiment [3]. For the same molecule, the Activity entry in experiment [5] was “Agonist”. The molecule further gave an IC50 at Autotaxin of 415 nM. The residual activity on Autotaxin worked out at 51%.
With `CCCCCCCCCCCCC1OCC(COP(=O)(O)O)O1` (stereo unspecified), in experiment [1], half-maximal inhibition (IC50) was put at 1110 nM and the Ki came to 652 nM. In experiment [2], this molecule gave an IC50 of 7430 nM and a Ki of 745 nM. In addition, the Activity entry in experiment [5] was “Agonist”. Besides, the residual activity on Autotaxin is 26%.
In experiment [1], `CCCCCCC/C=C/CCCCCCCCC1OCC(COP(=O)(O)O)O1` (stereo unspecified) yielded an IC50 of 915 nM and a Ki of 497 nM. For the same molecule, the EC50 in experiment [2] was greater than 10000 nM. Further, the Activity result in experiment [5] is “Agonist”. At Autotaxin, the IC50 came out at 141 nM and the residual activity amounted to 30%.
The molecule `CCCCCCCCc1ccc(CCCCCCC2OCC(COP(O)(O)=S)O2)cc1` (stereo unspecified) came in with an Emax in experiment [3] of 87%. Besides, a half-maximal effect in experiment [4] (EC50) was put at 692 nM. Besides, in experiment [5], the Activity result is “Agonist”. At Autotaxin, this molecule yielded an IC50 of 449 nM and a residual activity of 55%.
`CCCCCCC/C=C/CCCCCCCC[C@H]1OC[C@@H](COP(O)(O)=S)O1`: the EC50 in experiment [1] stood at 1560 nM; in experiment [2], 1320 nM; in experiment [4], 265 nM. Moreover, the Emax is 87% in experiment [2] and 78% in experiment [3]. The Activity result in experiment [5] was “Agonist”. The IC50 on Autotaxin turned out to be 403 nM. This molecule yielded a residual activity at Autotaxin of 60%.
On to `CCCCCCC/C=C/CCCCCCCC[C@@H]1OC[C@@H](COP(=O)(O)O)O1`, for which, in experiment [1], the EC50 is greater than 10000 nM. This molecule showed an EC50 in experiment [2] greater than 10000 nM. In experiment [4], this molecule registered an IC50 of 484 nM and a Ki of 241 nM. Also, the Activity result in experiment [5] was “Agonist”. For the same molecule, on Autotaxin, half-maximal inhibition (IC50) required 238 nM and the residual activity worked out at 46%.
For `CCCCCCC/C=C/CCCCCCCC[C@@H]1OC[C@@H](COP(O)(O)=S)O1`, the figures for the EC50 in experiment [1], in experiment [2] and in experiment [4] were 2260 nM, 1540 nM and 204 nM, respectively. The Emax in experiment [2] came out at 72%; in experiment [3] it was 102%. Further, the Activity result in experiment [5] was “Agonist”. Further, the IC50 against Autotaxin is 363 nM. Moreover, the residual activity on Autotaxin came to 64%.
As for `CCCCCCC/C=C/CCCCCCCC[C@@H]1OC[C@H](COP(=O)(O)O)O1`, in experiment [2], a half-maximal effect (EC50) was put at 1710 nM and the Emax is 42%. In experiment [4], this molecule returned an IC50 of 136 nM and a Ki of 83 nM. In addition, the Activity result in experiment [5] was “Agonist”. At Autotaxin, the IC50 was determined as 97 nM and the residual activity was found to be 28%.
